Laboratory results taken from US9833497B2, “Human originated EGF domain proteins and use of the same” (CHENGDU SOURCEBIO LIMITED-LIABILITY COMPANY, priority 2013, dated 2017).

Key:
Assay type in all cases: cell-based
[1] = tested on: Proteus vulgaris; assay: MIC against Gram-negative bacteria: Proteus vulgaris; conditions: for MIC: P. vulgaris
How it was run: (§1)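 Growth inhibition by human EGF domain proteins was scored in LB liquid culture seeded at 5×10^5 CFU/mL. Protein was applied as a two-fold dilution series in triplicate, with shaking incubation at 37° C; MIC is the lowest concentration giving no growth.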

[2] = tested on: Moraxella catarrhalis; assay: MIC against Gram-negative bacteria: Moraxella catarrhalis; conditions: for MIC: M. catarrhalis
How it was run: as §1

[3] = tested on: E. coli BL21; assay: MIC against Gram-negative bacteria: E. coli BL21
How it was run: as §1

[4] = tested on: E. coli DH5α; assay: Antibacterial activity: MIC and growth curve against E. coli DH5α in 96-well plate; conditions: minimal inhibitory concentration against E. coli DH5α; 96-well plate, 5×10^5 CFU/mL, 37° C., judged after 8 h
How it was run: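 MIC taken as lowest protein level with no bacterial growth, tracked by A600 every 30 min during 37 °C, 175 rpm culture. Two-fold protein series 50-12.5 μg/mL final, triplicate wells, against 5×10^5 CFU/mL of LB-washed mid-log cells.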

[5] = tested on: Serratia marcescens; assay: MIC against Gram-negative bacteria: Serratia marcescens; conditions: for MIC: S. marcescens
How it was run: as §1

[6] = tested on: Enterobacter cloacae; assay: MIC against Gram-negative bacteria: Enterobacter cloacae; conditions: for MIC: E. cloacae
How it was run: as §1

[7] = tested on: Aeromonas hydrophila; assay: MIC against Gram-negative bacteria: Aeromonas hydrophila; conditions: for MIC: A. hydrophila
How it was run: as §1

[8] = tested on: Proteus mirabilis; assay: MIC against Gram-negative bacteria: Proteus mirabilis; conditions: for MIC: P. mirabilis
How it was run: as §1

[9] = tested on: Citrobacter diversus; assay: MIC against Gram-negative bacteria: Citrobacter diversus; conditions: for MIC: C. diversus
How it was run: as §1

[10] = tested on: Pseudomonas aeruginosa; assay: MIC against Gram-negative bacteria: Pseudomonas aeruginosa; conditions: for MIC: P. aeruginosa
How it was run: as §1

[11] = tested on: Klebsiella pneumonia; assay: MIC against Gram-negative bacteria: Klebsiella pneumonia; conditions: for MIC: K. pneumonia
How it was run: as §1

[12] = 10 h cultivation at 37° C., 5×10^5 CFU/mL, two-fold serial dilution
[13] = 96-well plate, 5×10^5 CFU/mL, 37° C., 10 h
[14] = 10 h cultivation at 37° C., 5×10^5 CFU/mL

## PRT1382 (GVRSCPRGCSQRGRCKDGRCVCDPGYTGEDC; listed as Homo sapiens)
[1]; Proteus vulgaris, 5×10^5 CFU/mL, 10 h cultivation at 37° C.
  MIC against P. vulgaris: 25 µg/mL
[2]; Moraxella catarrhalis, 5×10^5 CFU/mL, 10 h cultivation at 37° C.
  MIC against M. catarrhalis: 12.5 µg/mL
[3]; E. coli BL21, 5×10^5 CFU/mL, 10 h cultivation at 37° C.
  MIC against E. coli BL21: 12.5 µg/mL
[4]
  MIC: 25 µg/mL
[5]; Serratia marcescens, 5×10^5 CFU/mL, 10 h cultivation at 37° C.
  MIC against S. marcescens: 12.5 µg/mL
[6]; Enterobacter cloacae, 5×10^5 CFU/mL, 10 h cultivation at 37° C.
  MIC against E. cloacae: 50 µg/mL
[7]; Aeromonas hydrophila, 5×10^5 CFU/mL, 10 h cultivation at 37° C.
  MIC against A. hydrophila: 12.5 µg/mL
[8]; Proteus mirabilis, 5×10^5 CFU/mL, 10 h cultivation at 37° C.
  MIC against P. mirabilis: 12.5 µg/mL
[9]; Citrobacter diversus, 5×10^5 CFU/mL, 10 h cultivation at 37° C.
  MIC against C. diversus: 50 µg/mL
[10]; Pseudomonas aeruginosa, 5×10^5 CFU/mL, 10 h cultivation at 37° C.
  MIC against P. aeruginosa: 50 µg/mL
[11]; Klebsiella pneumonia, 5×10^5 CFU/mL, 10 h cultivation at 37° C.
  MIC against K. pneumonia: 100 µg/mL

## PRT1159 (TTDDQENECQHEAVCKDEINRPRCSCSLSYIGRLCV; listed as Homo sapiens)
[1]; [12]
  MIC P. vulgaris: 25 µg/mL
[2]; [12]
  MIC M. catarrhalis: 25 µg/mL
[3]; [12]
  MIC E. coli BL21: 50 µg/mL
[4]
  MIC: 12.5 µg/mL
[5]; [12]
  MIC S. marcescens: 12.5 µg/mL
[6]; [12]
  MIC E. cloacae: 12.5 µg/mL
[7]; [12]
  MIC A. hydrophila: 25 µg/mL
[8]; [12]
  MIC P. mirabilis: 12.5 µg/mL
[9]; [12]
  MIC C. diversus: 50 µg/mL
[10]; [12]
  MIC P. aeruginosa: 12.5 µg/mL
[11]; [12]
  MIC K. pneumonia: 50 µg/mL

## PRT569 (CDCDLGGALNNSCFAESGQCSCRPHMIGRQC; listed as Homo sapiens)
[1]; [13]
  MIC against P. vulgaris: 25 µg/mL
[2]; [13]
  MIC against M. catarrhalis: 25 µg/mL
[3]; [13]
  MIC against E. coli BL21: 12.5 µg/mL
[4]
  MIC: 25 µg/mL
[5]; [13]
  MIC against S. marcescens: 12.5 µg/mL
[6]; [13]
  MIC against E. cloacae: 12.5 µg/mL
[7]; [13]
  MIC against A. hydrophila: 25 µg/mL
[8]; [13]
  MIC against P. mirabilis: 12.5 µg/mL
[9]; [13]
  MIC against C. diversus: 100 µg/mL
[10]; [13]
  MIC against P. aeruginosa: 25 µg/mL
[11]; [13]
  MIC against K. pneumonia: 12.5 µg/mL

## PRT997 (EVDECLSDPCPVGASCLDLPGAFFCLCPSGFTGQLCE; listed as Homo sapiens)
[1]; 10 h cultivation at 37° C.
  MIC: 50 µg/mL
[2]; 10 h cultivation at 37° C.
  MIC: 12.5 µg/mL
[3]; E. coli BL21, 10 h cultivation at 37° C.
  MIC: 12.5 µg/mL
[4]
  MIC: 12.5 µg/mL
[5]; 10 h cultivation at 37° C.
  MIC: 25 µg/mL
[6]; 10 h cultivation at 37° C.
  MIC: 50 µg/mL
[7]; 10 h cultivation at 37° C.
  MIC: 12.5 µg/mL
[8]; 10 h cultivation at 37° C.
  MIC: 25 µg/mL
[9]; 10 h cultivation at 37° C.
  MIC: 50 µg/mL
[10]; 10 h cultivation at 37° C.
  MIC: 12.5 µg/mL
[11]; 10 h cultivation at 37° C.
  MIC: 12.5 µg/mL

## PRT734 (NNNPCLENNGGCSHLCFALPGLHTPKCDCAFGTLQSDGKNCA; listed as Homo sapiens)
[1]; [13]
  MIC P. vulgaris: 25 µg/mL
[2]; [13]
  MIC M. catarrhalis: 12.5 µg/mL
[3]; [13]
  MIC E. coli BL21: 12.5 µg/mL
[4]
  MIC: 50 µg/mL
[5]; [13]
  MIC S. marcescens: 50 µg/mL
[6]; [13]
  MIC E. cloacae: 12.5 µg/mL
[7]; [13]
  MIC A. hydrophila: 50 µg/mL
[8]; [13]
  MIC P. mirabilis: 25 µg/mL
[9]; [13]
  MIC C. diversus: 25 µg/mL
[10]; [13]
  MIC P. aeruginosa: 25 µg/mL
[11]; [13]
  MIC K. pneumonia: 50 µg/mL

## PRT430 (DIDECAQGAGILCTFRCLNVPGSYQCACPEQGYTMTANGRSCK; listed as Homo sapiens)
[1]; [14]
  MIC: 50 µg/mL
[2]; [14]
  MIC: 25 µg/mL
[3]; E. coli BL21, 10 h cultivation at 37° C., 5×10^5 CFU/mL
  MIC: 25 µg/mL
[4]
  MIC: 12.5 µg/mL
[5]; [14]
  MIC: 12.5 µg/mL
[6]; [14]
  MIC: 12.5 µg/mL
[7]; [14]
  MIC: 25 µg/mL
[8]; [14]
  MIC: 12.5 µg/mL
[9]; [14]
  MIC: 50 µg/mL
[10]; [14]
  MIC: 50 µg/mL
[11]; [14]
  MIC: 25 µg/mL
